# Assay results taken from US11000033B2, “Ketone or oxime compound, and herbicide” (NISSAN CHEMICAL CORPORATION, priority 2014, dated 2021).
# What was measured:
# Type in all cases: in vivo
# Abutilon theophrasti = assay: Test Example 4: herbicidal effect by soil treatment (symbol M); details: application herbicide amount 320 g/ha
# Summary of the method: (§1)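 Seeds were sown in sterilized diluvial soil, covered with about 1.5 cm of soil, and the soil surface was sprayed with a water-diluted emulsion of the compound at a predetermined rate. Plants grew in a greenhouse at 25° C. to 30° C.; effects were scored visually 3 weeks after application.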
# corn = assay: Test Example 5: effect on crop by foliage application, plastic box (symbol c); details: 320 g/ha, 3 weeks after application
# Summary of the method: (§2)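 Box culture: sterile diluvial soil, seeds spot-sown, ~1.5 cm cover, raised under glass at 25–30° C.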
# Cyperus difformis = assay: Test Example 3: herbicidal effect by foliage application, Wagner pot (symbol E); details: application herbicide amount 320 g/ha
# Summary of the method: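 Post-emergence, paddy-type test: seedlings 14 d old in shallow-flooded (0.1–0.5 cm) alluvial soil, 25–30 °C greenhouse. Emulsion diluted to target rate, sprayed on leaves. Read-out: visual effect on each species at 3 weeks, per set criteria.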
# Chenopodium album = assay: Test Example 4: herbicidal effect by soil treatment (symbol O); details: application herbicide amount 320 g/ha
# Summary of the method: as §1
# transplanted rice plant = assay: Test Example 1: effect on crop, application before weed generation in submerged conditions (symbol a); details: application herbicide amount 320 g/ha
# Summary of the method: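 Rice at 2.5 leaf stage transplanted into submerged soil (4 cm depth) sown with three weed species; herbicide applied before weed emergence.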
# soybean = assay: Test Example 5: effect on crop by foliage application, plastic box (symbol d); details: 320 g/ha, 3 weeks after application
# Summary of the method: as §2
# Setaria viridis = assay: Test Example 5: herbicidal effect by foliage application, plastic box (symbol G); details: 320 g/ha, 3 weeks after application
# Summary of the method: (§3)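 Greenhouse foliar test: seedlings at 14 days, grown 25° C. to 30° C. in sterilized diluvial soil; compound applied as an aqueous dilution of an emulsion; response read 3 weeks after spraying.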
# Amaranthus retroflexus = assay: Test Example 5: herbicidal effect by foliage application, plastic box (symbol N); details: 320 g/ha, 3 weeks after application
# Summary of the method: as §3
# Veronica persica = assay: Test Example 4: herbicidal effect by soil treatment (symbol R); details: application herbicide amount 320 g/ha
# Summary of the method: as §1
# [1] = tested on: Echinochloa oryzacola Vasing.; assay: Test Example 1: herbicidal activity, application before weed generation in submerged conditions (symbol A); details: application herbicide amount 320 g/ha
# Summary of the method: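 Weed control was rated three weeks after treatment on a 0–5 scale, from 5% or lower up to 90% or more. Pre-emergence water-surface application of diluted emulsion at a predetermined rate was made on the day of sowing, in flooded (4 cm water) pots containing rice seedlings, kept at 25–30 °C under glass.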
# Scirpus juncoides = assay: Test Example 2: herbicidal activity, application during weed generation in submerged conditions (symbol B); details: Table 23; application herbicide amount 320 g/ha; grade 0-5 by criteria of Test Example 1
# Summary of the method: (§4)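 Steps: fill pots with alluvial soil; add water to 4 cm depth; co-sow the three weeds; grow at 25° C. to 30° C. under glass; at 1–2 leaves, dose the floodwater with diluted emulsion; rate damage visually after 3 weeks.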
# [2] = tested on: Echinochloa crus-galli var. crus-galli; assay: Test Example 4: herbicidal effect by soil treatment (symbol H); details: application herbicide amount 320 g/ha
# Summary of the method: as §1
# Monochoria vaginalis = assay: Test Example 2: herbicidal activity, application during weed generation in submerged conditions (symbol C); details: Table 23; application herbicide amount 320 g/ha; grade 0-5 by criteria of Test Example 1
# Summary of the method: as §4
SMILES,"Herbicidal effect grade, M: Abutilon theophrasti (Abutilon theophrasti)","c: corn, effect on crop (criteria of Test Example 1) (corn)","herbicidal effect on E, grade 0-5 (Cyperus difformis)","Herbicidal effect grade, O: Chenopodium album (Chenopodium album)","Effect grade on crop, a: transplanted rice plant (transplanted rice plant)","d: soybean, effect on crop (criteria of Test Example 1) (soybean)","G: Setaria viridis, herbicidal effect (criteria of Test Example 1) (Setaria viridis)","N: Amaranthus retroflexus, herbicidal effect (criteria of Test Example 1) (Amaranthus retroflexus)","Herbicidal effect grade, R: Veronica persica (Veronica persica)","Herbicidal effect grade, A: Echinochloa oryzacola Vasing. [1]","Herbicidal effect grade, B: Scirpus juncoides (Scirpus juncoides)","Herbicidal effect grade, H: Echinochloa crus-galli var. crus-galli [2]","Herbicidal effect grade, C: Monochoria vaginalis (Monochoria vaginalis)","M: Abutilon theophrasti, herbicidal effect grade (Abutilon theophrasti)","c: corn, effect on crop grade (corn)","O: Chenopodium album, herbicidal effect grade (Chenopodium album)","d: soybean, effect on crop grade (soybean)","G: Setaria viridis, herbicidal effect grade (Setaria viridis)","N: Amaranthus retroflexus, herbicidal effect grade (Amaranthus retroflexus)","R: Veronica persica, herbicidal effect grade (Veronica persica)",other results
CON=C(C)CC1CC(OC(=O)C(C)CSC)=C(c2c(C)cc(-c3ccc(Cl)cc3)cc2C)C1=O (stereo not drawn) [6-086],0 (Herbicidal ratio of 5% or lower (almost no effect)),3 (Herbicidal ratio of 40% or higher and lower than 70%),5 (Herbicidal ratio of 90% or more (almost completely withered)),3 (Herbicidal ratio of 40% or higher and lower than 70%),5 (Herbicidal ratio of 90% or more (almost completely withered)),5 (Herbicidal ratio of 90% or more (almost completely withered)),5 (Herbicidal ratio of 90% or more (almost completely withered)),0 (Herbicidal ratio of 5% or lower (almost no effect)),4 (Herbicidal ratio of 70% or higher and lower than 90%),5 (Herbicidal ratio of 90% or more (almost completely withered)),4 (Herbicidal ratio of 70% or higher and lower than 90%),5 (Herbicidal ratio of 90% or more (almost completely withered)),3 (Herbicidal ratio of 40% or higher and lower than 70%),–,–,–,–,–,–,–,–
CON=C(C)CC1CC(O)=C(c2c(C)cc(-c3ccccn3)cc2C)C1=O (mixture of isomers) [6-051],–,–,5 (Herbicidal ratio of 90% or more (almost completely withered)),–,5 (Herbicidal ratio of 90% or more (almost completely withered)),–,–,–,–,4 (Herbicidal ratio of 70% or higher and lower than 90%),4 (Herbicidal ratio of 70% or higher and lower than 90%),–,2 (Herbicidal ratio of 20% or higher and lower than 40%),1 (Herbicidal ratio of 5% or higher and lower than 20%),5 (Herbicidal ratio of 90% or more (almost completely withered)),0 (Herbicidal ratio of 5% or lower (almost no effect)),1 (Herbicidal ratio of 5% or higher and lower than 20%),5 (Herbicidal ratio of 90% or more (almost completely withered)),3 (Herbicidal ratio of 40% or higher and lower than 70%),0 (Herbicidal ratio of 5% or lower (almost no effect)),"H: Echinochloa crus-galli var. crus-galli, herbicidal effect grade [2]: 5 (Herbicidal ratio of 90% or more (almost completely withered))"
CC(=O)C1CC(O)=C(c2c(C)cc(C)cc2C)C1=O (stereo not drawn) [8-001],0 (Herbicidal ratio of 5% or lower (almost no effect)),–,–,0 (Herbicidal ratio of 5% or lower (almost no effect)),0 (Herbicidal ratio of 5% or lower (almost no effect)),–,–,–,0 (Herbicidal ratio of 5% or lower (almost no effect)),0 (Herbicidal ratio of 5% or lower (almost no effect)),0 (Herbicidal ratio of 5% or lower (almost no effect)),0 (Herbicidal ratio of 5% or lower (almost no effect)),0 (Herbicidal ratio of 5% or lower (almost no effect)),–,0 (Herbicidal ratio of 5% or lower (almost no effect)),–,0 (Herbicidal ratio of 5% or lower (almost no effect)),1 (Herbicidal ratio of 5% or higher and lower than 20%),0 (Herbicidal ratio of 5% or lower (almost no effect)),–,E herbicidal effect grade (Cyperus difformis; Table 24): 0 (Herbicidal ratio of 5% or lower (almost no effect))
CON=C(C)CC1CC(OC(=O)CCCC(C)=O)=C(c2c(C)cc(-c3ccc(Cl)cc3)cc2C)C1=O (stereo not drawn) [6-080],–,5 (Herbicidal ratio of 90% or more (almost completely withered)),5 (Herbicidal ratio of 90% or more (almost completely withered)),–,5 (Herbicidal ratio of 90% or more (almost completely withered)),1 (Herbicidal ratio of 5% or higher and lower than 20%),5 (Herbicidal ratio of 90% or more (almost completely withered)),0 (Herbicidal ratio of 5% or lower (almost no effect)),–,5 (Herbicidal ratio of 90% or more (almost completely withered)),4 (Herbicidal ratio of 70% or higher and lower than 90%),–,3 (Herbicidal ratio of 40% or higher and lower than 70%),0 (Herbicidal ratio of 5% or lower (almost no effect)),–,0 (Herbicidal ratio of 5% or lower (almost no effect)),–,–,–,0 (Herbicidal ratio of 5% or lower (almost no effect)),"H: Echinochloa crus-galli var. crus-galli, herbicidal effect grade [2]: 5 (Herbicidal ratio of 90% or more (almost completely withered))"
CON=C(C)CC1CC(OC(=O)N2CCOCC2)=C(c2c(C)cc(C)cc2OC)C1=O (stereo not drawn) [6-094],4 (Herbicidal ratio of 70% or higher and lower than 90%),5 (Herbicidal ratio of 90% or more (almost completely withered)),5 (Herbicidal ratio of 90% or more (almost completely withered)),5 (Herbicidal ratio of 90% or more (almost completely withered)),5 (Herbicidal ratio of 90% or more (almost completely withered)),4 (Herbicidal ratio of 70% or higher and lower than 90%),5 (Herbicidal ratio of 90% or more (almost completely withered)),0 (Herbicidal ratio of 5% or lower (almost no effect)),3 (Herbicidal ratio of 40% or higher and lower than 70%),5 (Herbicidal ratio of 90% or more (almost completely withered)),2 (Herbicidal ratio of 20% or higher and lower than 40%),5 (Herbicidal ratio of 90% or more (almost completely withered)),1 (Herbicidal ratio of 5% or higher and lower than 20%),–,–,–,–,–,–,–,–
CC(=O)CC1CC(O)=C(c2c(C)cc(-c3ccc(C(F)(F)F)cc3)cc2C)C1=O (stereo not drawn) [7-005],0 (Herbicidal ratio of 5% or lower (almost no effect)),4 (Herbicidal ratio of 70% or higher and lower than 90%),0 (Herbicidal ratio of 5% or lower (almost no effect)),0 (Herbicidal ratio of 5% or lower (almost no effect)),1 (Herbicidal ratio of 5% or higher and lower than 20%),0 (Herbicidal ratio of 5% or lower (almost no effect)),4 (Herbicidal ratio of 70% or higher and lower than 90%),0 (Herbicidal ratio of 5% or lower (almost no effect)),0 (Herbicidal ratio of 5% or lower (almost no effect)),3 (Herbicidal ratio of 40% or higher and lower than 70%),0 (Herbicidal ratio of 5% or lower (almost no effect)),0 (Herbicidal ratio of 5% or lower (almost no effect)),0 (Herbicidal ratio of 5% or lower (almost no effect)),–,–,–,–,–,–,–,–
